Measurements as given in ChEMBL document CHEMBL1157539, “Thousands of chemical starting points for antimalarial lead identification” (Nature, 2010).

Test system: Plasmodium falciparum
Assay: GSK_TCMDC: Inhibition of Plasmodium falciparum 3D7 in whole erythrocytes, using parasite LDH activity as an index of growth.
Format: functional, organism-based
Settings: Plasmodium falciparum, 3D7

**Q.** How did the XC50 turn out when Cc1ccc(OCC2CCN(c3ncc(C(=O)NC4CC4)cc3Cl)CC2)cc1 was run?
**A.** Its XC50 is 1090 nM.

**Q.** With CCOc1c(CNCCCNc2nc3ccccc3[nH]2)cc(I)cc1OC as the molecule, how does the XC50 read?
**A.** Its XC50 is 663 nM.

**Q.** For CCN1CCc2nc3ccccc3c(C(=O)Nc3ccc(C#N)cc3)c2C1, which XC50 is on record?
**A.** The XC50 was 780 nM.

**Q.** How did the XC50 turn out when O=C(Nc1ccc(Cl)c(C(F)(F)F)c1)N[C@H]1CCN(CCCCCNC(=O)C2CC2c2ccc(Cl)c(Cl)c2)C1 (stereo not given in full) was run?
**A.** Its XC50 is 1080 nM.

**Q.** Which XC50 does the source give for O=C(Nc1cccc(C(F)(F)F)c1)c1cccc(S(=O)(=O)NCC2CCN(CC3CCCCC3)CC2)c1 here?
**A.** The XC50 was 1470 nM.

**Q.** CN1CCc2cc(CN3CC4(C)CC3CC(C)(C)C4)c(O)cc2C(c2ccccc2)C1 (stereo not given) was tested. Which XC50 did it give?
**A.** The XC50 was 720 nM.

**Q.** Which XC50 does the source give for Cc1cccc2nc(-c3cccc(-c4ccc(NC(=O)C5CCN(C)CC5)cc4)c3)[nH]c12 here?
**A.** Its XC50 is 829 nM.

**Q.** With Cc1cc(NC(=O)Nc2cccc(Cl)c2Cl)c2ccccc2n1 as the molecule, how does the XC50 read?
**A.** Its XC50 is 744 nM.

**Q.** For O=C(Cn1c(SCc2cccc(F)c2F)cc(=O)c2ccccc21)N(CCc1c[nH]cn1)Cc1ccc(-c2ccc(C(F)(F)F)cc2)cc1, which XC50 is on record?
**A.** Its XC50 is 801 nM.

**Q.** With O=C(NCCc1ccccc1)N(Cc1cccc(-c2ccc(CNCc3ccc4c(c3)OCO4)cc2)c1)C1CCN(Cc2ccccc2)CC1 as the molecule, how does the XC50 read?
**A.** The XC50 was 661 nM.

**Q.** Which XC50 does the source give for O=C(NC1CCN(CCN2CCC(c3ccccc3C(F)(F)F)CC2)CC1)c1ccc(-c2ccc(Cl)cc2)cc1 here?
**A.** The XC50 was 714 nM.

**Q.** With CCc1c[nH]c2c(N3CCCCS3(=O)=O)cc(C(=O)N[C@@H](Cc3ccccc3)[C@H](O)CNCc3cccc(OC)c3)cc12 as the molecule, how does the XC50 read?
**A.** The XC50 was 909 nM.

**Q.** Which XC50 does the source give for Cc1ccc(NC(=O)Nc2ccccc2F)cc1-c1ccc(C(=O)Nc2ccncc2)cc1 here?
**A.** Its XC50 is 563 nM.

**Q.** How did the XC50 turn out when Cc1ccc(C)c(NC(=O)NC2CCN(c3ccnc(Nc4ccc(F)cc4)n3)C2)c1 (stereo not given) was run?
**A.** Its XC50 is 675 nM.

**Q.** CCOC(=O)c1cnc2c(OC)cc(OC)c(Cl)c2c1Nc1ccccc1 was tested. Which XC50 did it give?
**A.** The XC50 was 871 nM.

**Q.** Which XC50 does the source give for CC(Cc1ccc(OCc2ccc(CCN(C)C)cc2)cc1)NCCc1cccc(Cl)c1 (stereo not given) here?
**A.** The XC50 was 769 nM.

**Q.** How did the XC50 turn out when CN1CCC(C(=O)N(Cc2ccc(-c3ccc(CNCCc4ccccc4)cn3)cc2)C2CCN(Cc3ccccc3)CC2)CC1 was run?
**A.** The XC50 was 787 nM.

**Q.** Nc1c2c(nc3cc(NC(=O)c4ccc([N+](=O)[O-])cc4)ccc13)CCCC2 was tested. Which XC50 did it give?
**A.** Its XC50 is 475 nM.

**Q.** For Cc1nc2nc(N)nc(N)c2c(C)c1Cc1ccc([N+](=O)[O-])cc1, which XC50 is on record?
**A.** Its XC50 is 438 nM.

**Q.** CCCCCCCCc1c(C)nc(C)c(C#N)c1O was tested. Which XC50 did it give?
**A.** The XC50 was 402 nM.

**Q.** With Cc1cc(N2CCN(C3CCCCC3)CC2)nc2cccc(O)c12 as the molecule, how does the XC50 read?
**A.** The XC50 was 701 nM.

**Q.** With Cc1cccc2nc(-c3ccc(-c4cccc(NC(=O)NCc5ccccc5)c4)cc3)[nH]c12 as the molecule, how does the XC50 read?
**A.** Its XC50 is 777 nM.

**Q.** Which XC50 does the source give for CCc1ccc(CN(CCCOc2cccc(CC(=O)NCc3c[nH]cn3)c2)Cc2ccc(-n3ccnc3)cc2)cc1 here?
**A.** The XC50 was 979 nM.

**Q.** CN1CCCN(Cc2ccc(-c3ccc(NC(=O)c4ccc(C#N)cc4)cc3)cc2)CC1 was tested. Which XC50 did it give?
**A.** Its XC50 is 1020 nM.

**Q.** Which XC50 does the source give for COC(=O)CCCOc1cc(Cc2cnc(N)nc2N)cc(OC)c1OC here?
**A.** Its XC50 is 767 nM.

**Q.** Which XC50 does the source give for Cc1cc(NCCc2ccccc2)nc(NC(=N)Nc2ccc(Cl)cc2)n1 here?
**A.** Its XC50 is 232 nM.

**Q.** For O=C(Nc1ccc(OC2CCN(Cc3ccc(F)cc3)CC2)c(Cl)c1)c1cccs1, which XC50 is on record?
**A.** The XC50 was 318 nM.

**Q.** For COc1ccc(-c2ccc(NC(=O)c3ccc(Cl)cc3)cc2)cc1CN1CCCN(C)CC1, which XC50 is on record?
**A.** Its XC50 is 648 nM.

**Q.** Which XC50 does the source give for CN(C)CCCn1cncc1-c1ccc2ncnc(Nc3ccc(OCc4ccccc4)cc3)c2c1 here?
**A.** The XC50 was 524 nM.

**Q.** Which XC50 does the source give for CC(C)(C)c1nn(-c2ccccc2)c2[nH]c(=O)c(CNC3CCCCC3)cc12 here?
**A.** Its XC50 is 1250 nM.

**Q.** For Nc1c2c(nc3ccc(NC(=O)CCCCCc4ccccc4)cc13)CCCC2, which XC50 is on record?
**A.** The XC50 was 438 nM.

**Q.** Which XC50 does the source give for N=C(N)NN=CC(=O)Nc1ccc(Br)cc1 here?
**A.** Its XC50 is 884 nM.

**Q.** How did the XC50 turn out when O=C(c1cc(-c2ccccc2O)on1)N1CCN(C(c2ccccc2)c2ccccc2)CC1 was run?
**A.** The XC50 was 335 nM.

**Q.** How did the XC50 turn out when Cc1ccoc1C(=O)Nc1ccc(-c2cccc(-c3nc4cccc(C)c4[nH]3)c2)cc1 was run?
**A.** Its XC50 is 726 nM.

**Q.** With Oc1ccc2ncnc(Nc3ccc(OCc4cccc(F)c4)c(Cl)c3)c2c1 as the molecule, how does the XC50 read?
**A.** The XC50 was 993 nM.

**Q.** Which XC50 does the source give for Cc1cc(N[C@@H](Cc2ccccc2)C(=O)Nc2ccccc2)nc(NCCc2ccccc2)n1 here?
**A.** Its XC50 is 871 nM.

**Q.** How did the XC50 turn out when CN(C)CCCOc1ccc(CN2CC[C@H](NC(=O)c3ccc(Cl)c(Cl)c3)C2)c2ccccc12 was run?
**A.** The XC50 was 879 nM.

**Q.** COc1c(C2CCN(CCCCNC(=O)c3ccc(-c4ccc(Cl)cc4)c(O)c3)CC2)ccc2c1CCCC2 was tested. Which XC50 did it give?
**A.** The XC50 was 226 nM.

**Q.** c1cc(CNCCc2ccncc2)cc(-c2cccc(-c3nc4ccccc4[nH]3)c2)c1 was tested. Which XC50 did it give?
**A.** The XC50 was 146 nM.

**Q.** With O=C(NCc1ccc(Cl)c(Cl)c1)c1ccc(C2CCCN(Cc3ccc4[nH]cnc4c3)C2)cc1 (stereo not given) as the molecule, how does the XC50 read?
**A.** Its XC50 is 776 nM.

**Q.** Which XC50 does the source give for CCCCCCCCCc1c(C)[nH]c2ccccc2c1=O here?
**A.** The XC50 was 163 nM.

**Q.** Which XC50 does the source give for N=C(N)c1ccc(NC(=O)c2cc(Sc3ccc(O)c(C(=O)Nc4ccc(C(=N)N)cc4)c3)ccc2O)cc1 here?
**A.** Its XC50 is 122 nM.

**Q.** For COc1ccc(NC(=O)/C=C/c2ccccc2Cl)cc1OCCN1CCC(NC2CC2)CC1, which XC50 is on record?
**A.** Its XC50 is 842 nM.

**Q.** With COc1ccc2nccc([C@@H](O)CN3CCC(NCc4cc5c(cc4F)SCC(=O)N5)CC3)c2n1 as the molecule, how does the XC50 read?
**A.** The XC50 was 1000 nM.

**Q.** With O=C(N[C@@H](Cc1ccccc1)[C@H](O)CNC1CCOCC1)c1cc(C2CCCC2)cc(N2CCCCS2(=O)=O)c1 as the molecule, how does the XC50 read?
**A.** The XC50 was 202 nM.

**Q.** For O=S(=O)(NCCN1CCCC1)c1ccc(-c2ccc(CNCc3ccsc3)cc2)s1, which XC50 is on record?
**A.** Its XC50 is 832 nM.

**Q.** With COc1cccc(C(=O)NCCOc2ccccc2)c1Oc1ccccc1 as the molecule, how does the XC50 read?
**A.** The XC50 was 918 nM.

**Q.** With COc1ccccc1CN1CCC(NC(=O)c2ccc(-c3ccc(N(C)C)cc3)s2)CC1 as the molecule, how does the XC50 read?
**A.** The XC50 was 958 nM.

**Q.** With O=C(/C=C/c1ccc(Cl)c(Cl)c1)NCCCCCN1CCC(NC(=O)Nc2ccc(Cl)cc2Cl)CC1 as the molecule, how does the XC50 read?
**A.** Its XC50 is 640 nM.

**Q.** With CCCCCCN1CCC(NCc2ccc(CN(C)C)cc2)CC1 as the molecule, how does the XC50 read?
**A.** Its XC50 is 1270 nM.

**Q.** For Cc1cc(Nc2cccc(C(F)(F)F)c2)nc(NCc2ccccc2)n1, which XC50 is on record?
**A.** Its XC50 is 148 nM.

**Q.** Which XC50 does the source give for Nc1nc2c(ncn2COC2COP(=O)(O)OC2)c(=O)[nH]1 (stereo not given) here?
**A.** Its XC50 is 454 nM.

**Q.** With CC1(C)C2C=C(CN3CCC(NC(=O)Nc4ccc(Cl)c(Cl)c4)CC3)C1CC2 (stereo not given) as the molecule, how does the XC50 read?
**A.** The XC50 was 761 nM.

**Q.** For O=C(c1cc(C(F)(F)F)cc(C(F)(F)F)c1)N1CCC(CCN2CCC3(CC2)C(=O)NCN3c2ccccc2)CC1Cc1ccc(Cl)c(Cl)c1 (stereo not given), which XC50 is on record?
**A.** The XC50 was 656 nM.

**Q.** For Cc1sc2nc(CSc3ccccc3)nc(N3CCN(CC(=O)NC4CC4)CC3)c2c1C, which XC50 is on record?
**A.** Its XC50 is 462 nM.

**Q.** With O=c1cc(NCCCNCc2cccc(C(F)(F)F)c2Cl)[nH]c2ccccc12 as the molecule, how does the XC50 read?
**A.** Its XC50 is 804 nM.

**Q.** Which XC50 does the source give for Cc1nc2nc(N)nc(N)c2c(C)c1Cc1cccc(F)c1 here?
**A.** Its XC50 is 341 nM.

**Q.** For FC(F)(F)COc1c(CCNCCCCNCCc2ccc3ccccc3c2OCC(F)(F)F)ccc2ccccc12, which XC50 is on record?
**A.** The XC50 was 348 nM.

**Q.** N#Cc1cccc(NC(=O)Nc2cccc(-c3ccc(-c4nc5cc(C(F)(F)F)ccc5[nH]4)cc3)c2)c1 was tested. Which XC50 did it give?
**A.** Its XC50 is 247 nM.

**Q.** Nc1ncc(-c2ccc(Cl)c(Cl)c2)c(N)n1 was tested. Which XC50 did it give?
**A.** Its XC50 is 727 nM.

**Q.** Which XC50 does the source give for c1ccc2c(c1)CN(CC1CCOCC1)CC1(CCN(Cc3c[nH]c4cnccc34)CC1)O2 here?
**A.** Its XC50 is 1550 nM.

**Q.** For COc1ccc(-c2cc(C(=O)N[C@@H](Cc3ccccc3)C(=O)NCCN3CCCCC3)ccc2O)cc1, which XC50 is on record?
**A.** Its XC50 is 792 nM.

**Q.** O=S(=O)(c1cccc(C(F)(F)F)c1)N1CCC(CO)(Cc2cccc(C(F)(F)F)c2)CC1 was tested. Which XC50 did it give?
**A.** Its XC50 is 964 nM.

**Q.** How did the XC50 turn out when O=C(Nc1ccc(OC2CCN(Cc3ccccc3)C2)c(Cl)c1)c1ccc(F)cc1 (stereo not given) was run?
**A.** The XC50 was 791 nM.

**Q.** For Cc1cc(C(=O)NC2CCN(CC3(c4ccc(Cl)cc4)CCC3)CC2)on1, which XC50 is on record?
**A.** Its XC50 is 92 nM.

**Q.** How did the XC50 turn out when CCCN(CCC)C(=O)c1cc(C(=O)N[C@@H](Cc2ccccc2)[C@H](O)CNC(C)(C)c2cccc(OC)c2)cc(N2CCCCS2(=O)=O)c1 was run?
**A.** Its XC50 is 29.8 nM.

**Q.** CC1(C)N=C(N)N=C(N)N1c1ccc(Oc2ccc(Cl)cc2)c(Cl)c1 was tested. Which XC50 did it give?
**A.** Its XC50 is 78.9 nM.

**Q.** CO/C(=C\C=C\c1cc2cc(Cl)c(Cl)cc2[nH]1)C(=O)NC1CCN(CCOc2ccccc2)CC1 was tested. Which XC50 did it give?
**A.** Its XC50 is 611 nM.

**Q.** How did the XC50 turn out when COc1cccc(CNC(=O)[C@@H]2CN(C(=O)c3ccccc3)CCN2)c1 was run?
**A.** Its XC50 is 1160 nM.

**Q.** For Cc1nc(N/C=C/c2ccc(O)cc2)cc(N2CCCC2)n1, which XC50 is on record?
**A.** Its XC50 is 1070 nM.
